Key:
human recombinant HDAC6 = biological target: T1, human recombinant HDAC6 (Homo sapiens, UniProt Q9UBN7); experiment: In vitro HDAC enzyme activity inhibition assay, HDAC6 (HDAC Fluorimetric Drug Discovery Kit); type: biochemical; conditions: for HDAC6 Selectivity (fold): HDAC6 versus HDAC1; for IC50: human recombinant HDAC6, same protocol as the HDAC1 test
T1 construct: purchased Calbiochem Inc. 382180
T1 sequence (Q9UBN7 1-1215): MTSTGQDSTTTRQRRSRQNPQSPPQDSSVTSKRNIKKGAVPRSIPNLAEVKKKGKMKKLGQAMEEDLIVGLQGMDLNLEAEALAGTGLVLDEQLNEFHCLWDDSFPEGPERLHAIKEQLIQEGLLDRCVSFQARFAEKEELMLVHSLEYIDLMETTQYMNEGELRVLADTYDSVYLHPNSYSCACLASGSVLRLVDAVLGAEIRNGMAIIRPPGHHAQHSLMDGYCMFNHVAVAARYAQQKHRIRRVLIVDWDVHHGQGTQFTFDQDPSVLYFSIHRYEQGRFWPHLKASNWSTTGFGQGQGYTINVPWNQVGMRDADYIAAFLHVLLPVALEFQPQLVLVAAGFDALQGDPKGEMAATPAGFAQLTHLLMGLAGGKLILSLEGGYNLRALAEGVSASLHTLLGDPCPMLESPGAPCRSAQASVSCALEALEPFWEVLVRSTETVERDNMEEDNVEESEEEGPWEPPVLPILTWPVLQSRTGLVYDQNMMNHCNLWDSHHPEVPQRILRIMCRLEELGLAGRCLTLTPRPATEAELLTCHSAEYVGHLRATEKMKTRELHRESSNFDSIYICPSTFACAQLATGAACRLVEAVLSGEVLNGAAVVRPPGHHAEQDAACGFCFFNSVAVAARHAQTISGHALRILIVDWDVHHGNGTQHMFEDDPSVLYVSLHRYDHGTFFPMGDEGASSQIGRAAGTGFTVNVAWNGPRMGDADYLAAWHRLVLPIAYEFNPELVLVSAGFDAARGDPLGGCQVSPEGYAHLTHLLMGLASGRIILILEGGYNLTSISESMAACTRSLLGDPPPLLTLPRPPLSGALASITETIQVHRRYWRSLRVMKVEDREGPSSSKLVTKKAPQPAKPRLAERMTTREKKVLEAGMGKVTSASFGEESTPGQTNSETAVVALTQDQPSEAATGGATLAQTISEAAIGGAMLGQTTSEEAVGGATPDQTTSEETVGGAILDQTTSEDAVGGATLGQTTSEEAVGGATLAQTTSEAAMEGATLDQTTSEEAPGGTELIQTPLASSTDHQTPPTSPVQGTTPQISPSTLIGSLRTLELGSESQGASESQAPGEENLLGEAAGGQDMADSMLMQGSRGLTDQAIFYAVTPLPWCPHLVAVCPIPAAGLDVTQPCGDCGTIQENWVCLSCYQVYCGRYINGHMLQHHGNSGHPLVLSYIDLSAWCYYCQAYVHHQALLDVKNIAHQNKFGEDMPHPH
Procedure, shortened: (§1)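 Fluorimetric deacetylase kit; 0.3 μg human recombinant enzyme with 10 μM Fluor de Lys-SIRT1 substrate, 60 min at 30° C, then developer 30 min. Fluorescence read at Ex 360/Em 460; IC50 from 5-fold compound dilutions. HDAC1 and HDAC6 run by the same protocol.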

human recombinant HDAC1 = biological target: T2, human recombinant HDAC1 (Homo sapiens, UniProt Q13547); experiment: In vitro HDAC enzyme activity inhibition assay, HDAC1 (HDAC Fluorimetric Drug Discovery Kit); type: biochemical; conditions: human recombinant HDAC1, Fluor de Lys-SIRT1 substrate 10 μM, 30° C. for 60 minutes
T2 construct: purchased Enzo Life Sciences, Inc. BML-SE456
T2 sequence (Q13547 whole entry): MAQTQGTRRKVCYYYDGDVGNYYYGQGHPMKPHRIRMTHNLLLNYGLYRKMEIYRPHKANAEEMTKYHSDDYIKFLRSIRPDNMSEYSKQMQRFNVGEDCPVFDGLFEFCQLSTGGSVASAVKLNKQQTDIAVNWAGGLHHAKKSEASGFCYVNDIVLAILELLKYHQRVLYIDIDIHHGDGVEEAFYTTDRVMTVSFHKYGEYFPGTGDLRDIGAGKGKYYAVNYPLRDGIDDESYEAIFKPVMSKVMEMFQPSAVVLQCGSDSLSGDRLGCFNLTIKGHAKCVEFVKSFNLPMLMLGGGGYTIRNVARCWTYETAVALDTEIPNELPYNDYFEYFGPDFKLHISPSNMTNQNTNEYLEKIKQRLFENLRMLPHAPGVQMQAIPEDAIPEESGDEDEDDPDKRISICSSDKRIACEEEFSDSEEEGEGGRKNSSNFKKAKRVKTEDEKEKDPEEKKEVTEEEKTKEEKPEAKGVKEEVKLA
Procedure, shortened: as §1

HDAC6 Selectivity (fold) (human recombinant HDAC6) | IC50 (human recombinant HDAC6) [nM] | IC50 (human recombinant HDAC1) [nM] | SMILES
142 | 352 | > 50000 | CN(C)C(=O)N1CCC(C(=O)N(Cc2cn3ccc(-c4nnc(C(F)F)o4)cc3n2)c2cccc(F)c2)CC1 [Compound 4155, N4-((7-(5-(difluoromethyl)-1,3,4-oxadiazol-2-yl)imidazo[1,2-a]pyridin-2-yl)methyl)-N4-(3-fluorophenyl)-N1,N1-dimethylpiperidine-1,4-dicarboxamide]
226 | 221 | > 50000 | Fc1cccc(NCc2cn3ccc(-c4nnc(C(F)F)o4)cc3n2)c1 [Compound 3670, N-((7-(5-(difluoromethyl)-1,3,4-oxadiazol-2-yl)imidazo[1,2-a]pyridin-2-yl)methyl)-3-fluoroaniline]
538 | 93 | > 50000 | CCN1CCN(C(=O)N(Cc2cn3ccc(-c4nnc(C(F)F)o4)cc3n2)c2ccccc2)CC1 [Compound 4033, N-((7-(5-(difluoromethyl)-1,3,4-oxadiazol-2-yl)imidazo[1,2-a]pyridin-2-yl)methyl)-4-ethyl-N-phenylpiperazine-1-carboxamide]
47 | 1060 | > 50000 | FC(F)c1nnc(-c2ccn3cc(Cc4ccc(C(F)(F)F)cc4)nc3c2)o1 [Compound 3591]
224 | 223 | > 50000 | CC(CO)N1CC(C(=O)N(Cc2cn3ccc(-c4nnc(C(F)F)o4)cc3n2)c2ccccc2)C1 (stereo not drawn) [Compound 4161, N-((7-(5-(difluoromethyl)-1,3,4-oxadiazol-2-yl)imidazo[1,2-a]pyridin-2-yl)methyl)-1-(1-hydroxypropan-2-yl)-N-phenylazetidine-3-carboxamide]
325 | 154 | > 50000 | COC(=O)N1CCN(C(=O)N(Cc2cn3ccc(-c4nnc(C(F)F)o4)cc3n2)c2cccc(F)c2)CC1 [Compound 4098, methyl 4-(((7-(5-(difluoromethyl)-1,3,4-oxadiazol-2-yl)imidazo[1,2-a]pyridin-2-yl)methyl)(3-fluorophenyl)carbamoyl)piperazine-1-carboxylate]
121 | 413 | > 50000 | O=C(N1CCN(C(=O)C(F)(F)F)CC1)N(Cc1cn2ccc(-c3nnc(C(F)F)o3)cc2n1)c1cccc(F)c1 [Compound 4096, N-((7-(5-(difluoromethyl)-1,3,4-oxadiazol-2-yl)imidazo[1,2-a]pyridin-2-yl)methyl)-N-(3-fluorophenyl)-4-(2,2,2-trifluoroacetyl)piperazine-1-carboxamide]
215 | 232 | > 50000 | O=C(CO)N1CCN(C(=O)N(Cc2cn3ccc(-c4nnc(C(F)F)o4)cc3n2)c2cccc(F)c2)CC1 [Compound 4094, N-((7-(5-(difluoromethyl)-1,3,4-oxadiazol-2-yl)imidazo[1,2-a]pyridin-2-yl)methyl)-N-(3-fluorophenyl)-4-(2-hydroxyacetyl)piperazine-1-carboxamide]
295 | 170 | > 50000 | CS(=O)(=O)N1CC(C(=O)N(Cc2cn3ccc(-c4nnc(C(F)F)o4)cc3n2)c2cccc(F)c2)C1 [Compound 4203, N-((7-(5-(difluoromethyl)-1,3,4-oxadiazol-2-yl)imidazo[1,2-a]pyridin-2-yl)methyl)-N-(3-fluorophenyl)-1-(methylsulfonyl) azetidine-3-carboxamide]
245 | 204 | > 50000 | O=C(C1CCN(C(=O)C(F)(F)F)CC1)N(Cc1cn2ccc(-c3nnc(C(F)F)o3)cc2n1)c1cccc(F)c1 [Compound 4152, N-((7-(5-(difluoromethyl)-1,3,4-oxadiazol-2-yl)imidazo[1,2-a]pyridin-2-yl)methyl)-N-(3-fluorophenyl)-1-(2,2,2-trifluoroacetyl)piperidine-4-carboxamide]
133 | 377 | > 50000 | CC(CO)N1CCC(C(=O)N(Cc2cn3ccc(-c4nnc(C(F)F)o4)cc3n2)c2ccccc2)CC1 (stereo not drawn) [Compound 4117, N-((7-(5-(difluoromethyl)-1,3,4-oxadiazol-2-yl)imidazo[1,2-a]pyridin-2-yl)methyl)-1-(1-hydroxypropan-2-yl)-N-phenylpiperidine-4-carboxamide]
274 | 182 | > 50000 | O=C(C1CN(C(=O)C(F)(F)F)C1)N(Cc1cn2ccc(-c3nnc(C(F)F)o3)cc2n1)c1cccc(F)c1 [Compound 4202, N-((7-(5-(difluoromethyl)-1,3,4-oxadiazol-2-yl)imidazo[1,2-a]pyridin-2-yl)methyl)-N-(3-fluorophenyl)-1-(2,2,2-trifluoroacetyl) azetidine-3-carboxamide]
56 | 893 | > 50000 | FC(F)c1nnc(-c2ccn3cc(COc4ccc(C(F)(F)F)cc4)nc3c2)o1 [Compound 3724, 2-(difluoromethyl)-5-(2-((4-(trifluoromethyl)phenoxy)methyl)imidazo[1,2-a]pyridin-7-yl)-1,3,4-oxadiazole]
170 | 294 | > 50000 | FC(F)c1nnc(-c2ccn3cc(CNC4CCCCC4)nc3c2)o1 [Compound 3678, N-((7-(5-(difluoromethyl)-1,3,4-oxadiazol-2-yl)imidazo[1,2-a]pyridin-2-yl)methyl)cyclohexanamine]
197 | 254 | > 50000 | O=C(C1CN(C2CCC(F)(F)CC2)C1)N(Cc1cn2ccc(-c3nnc(C(F)F)o3)cc2n1)c1ccccc1 [Compound 4166, 1-(4,4-difluorocyclohexyl)-N-((7-(5-(difluoromethyl)-1,3,4-oxadiazol-2-yl)imidazo[1,2-a]pyridin-2-yl)methyl)-N-phenylazetidine-3-carboxamide]
112 | 444 | > 50000 | CS(=O)(=O)c1ccc(Cc2cn3ccc(-c4nnc(C(F)F)o4)cc3n2)cc1 [Compound 3595, 2-(difluoromethyl)-5-(2-(4-(methylsulfonyl)benzyl)imidazo[1,2-a]pyridin-7-yl)-1,3,4-oxadiazole]
341 | 147 | > 50000 | Cc1cccc(NCc2cn3ccc(-c4nnc(C(F)F)o4)cc3n2)c1 [Compound 3679, N-((7-(5-(difluoromethyl)-1,3,4-oxadiazol-2-yl)imidazo[1,2-a]pyridin-2-yl)methyl)-3-methylaniline]
203 | 247 | > 50000 | O=C(N1CCN(c2ccccn2)CC1)N(Cc1cn2ccc(-c3nnc(C(F)F)o3)cc2n1)c1ccccc1 [Compound 4048, N-((7-(5-(difluoromethyl)-1,3,4-oxadiazol-2-yl)imidazo[1,2-a]pyridin-2-yl)methyl)-N-phenyl-4-(pyridin-2-yl)piperazine-1-carboxamide]
94 | 530 | > 50000 | Cc1ccc(Cc2cn3ccc(-c4nnc(C(F)F)o4)cc3n2)cc1 [Compound 3589, 2-(difluoromethyl)-5-(2-(4-methylbenzyl)imidazo[1,2-a]pyridin-7-yl)-1,3,4-oxadiazole]

From patent US12522601B2, “1,3,4-oxadiazole derivative compounds as histone deacetylase 6 inhibitor, and the pharmaceutical composition comprising the same” (CHONG KUN DANG PHARMACEUTICAL CORP., priority 2020, dated 2026)
